From US6737383B1, “Herbicidal oxadiazolidines” (priority 1999, dated 2004)

What was measured:
[1] = system: pitted morningglory; experiment: Test D pitted morningglory; format: in vivo, Ipomoea lacunosa; details: Postemergence, 0 to 100 scale
[2] = system: common ragweed; experiment: Test D common ragweed; format: in vivo, Ambrosia elatior; details: Postemergence, 0 to 100 scale
[3] = system: goosegrass; experiment: Test D goosegrass; format: in vivo, Eleusine indica; details: Postemergence, 0 to 100 scale
[4] = system: Johnson grass; experiment: Test D Johnson grass; format: in vivo, Sorghum halepense; details: Postemergence, 0 to 100 scale
[5] = system: common groundsel; experiment: Test D common groundsel; format: in vivo, Senecio vulgaris; details: Postemergence, 0 to 100 scale
[6] = system: common pursiane; experiment: Test D common purslane; format: in vivo, Portulaca oleracea; details: Postemergence, 0 to 100 scale
[7] = system: Green foxtail; experiment: Test D green foxtail; format: in vivo; details: Postemergence, 0 to 100 scale, 0 no injury, 100 complete control
[8] = system: Green foxtail; experiment: Test D green foxtail; format: in vivo; details: Postemergence, 0 to 100 scale, 0 no injury, 100 complete control; remark: listed apart in the source
[9] = Rate 16 g/ha, 0 no injury, 100 complete control
[10] = Rate 32 g/ha, 0 no injury, 100 complete control
[11] = Rate 64 g/ha, 0 no injury, 100 complete control
[12] = Rate 125 g/ha, 0 no injury, 100 complete control

Row | SMILES | Plant response rating, P. morninglory [1, 9] | Plant response rating, P. morninglory [1, 10] | Plant response rating, P. morninglory [1, 11] | Plant response rating, P. morninglory [1, 12] | Plant response rating, P. morninglory ([1]; Rate 250 g/ha) | Plant response rating, C. ragweed [2, 9] | Plant response rating, C. ragweed [2, 10] | Plant response rating, C. ragweed [2, 11] | Plant response rating, C. ragweed [2, 12] | Plant response rating, C. ragweed ([2]; Rate 250 g/ha) | Plant response rating, Goosegrass [3, 9] | Plant response rating, Goosegrass [3, 10] | Plant response rating, Goosegrass [3, 11] | Plant response rating, Goosegrass [3, 12] | Plant response rating, Goosegrass ([3]; Rate 250 g/ha) | Plant response rating, Johnsongrass [4, 9] | Plant response rating, Johnsongrass [4, 10] | Plant response rating, Johnsongrass [4, 11] | Plant response rating, Johnsongrass [4, 12] | Plant response rating, Johnsongrass ([4]; Rate 250 g/ha) | also measured
1 | CC(C)N(C(=O)n1oc(=O)n(C2CC2)c1=O)c1ccc(Cl)cc1 [Compound 241] | 0 | 0 | 0 | 0 | 0 | 0 | 0 | 20 | 100 | 100 | 0 | 100 | 100 | 100 | 100 | 80 | 0 | 0 | 0 | 0 | Plant response rating, Com. groundsel [5, 10]: 0; Plant response rating, Com. groundsel [5, 11]: 0; Plant response rating, Com. groundsel [5, 12]: 100; Plant response rating, Com. groundsel ([5]; Rate 250 g/ha): 100; Plant response rating, C. purslane [6, 9]: 0; Plant response rating, C. purslane [6, 10]: 0; Plant response rating, C. purslane [6, 11]: 0; Plant response rating, C. purslane [6, 12]: 0; Plant response rating, C. purslane ([6]; Rate 250 g/ha): 0; Plant response rating, Green foxtail ([7]; Rate 64 g/ha): 10; Plant response rating, Green foxtail ([7]; Rate 125 g/ha): 100; Plant response rating, Green foxtail ([8]; Rate 16 g/ha): 0; Plant response rating, Green foxtail ([8]; Rate 32 g/ha): 10
2 | CC(C)N(C(=O)n1oc(=O)n(C2CCC2)c1=O)c1ccccc1 [Compound 348] | 0 | 0 | 0 | 0 | 0 | 0 | 0 | 0 | 0 | 20 | 50 | 90 | 100 | 100 | 100 | 0 | 0 | 0 | 20 | 90 | Plant response rating, Com. groundsel [5, 9]: 30; Plant response rating, Com. groundsel [5, 11]: 50; Plant response rating, Com. groundsel [5, 12]: 100; Plant response rating, Com. groundsel ([5]; Rate 250 g/ha): 100; Plant response rating, C. purslane [6, 9]: 0; Plant response rating, C. purslane [6, 10]: 0; Plant response rating, C. purslane [6, 11]: 0; Plant response rating, C. purslane [6, 12]: 0; Plant response rating, C. purslane ([6]; Rate 250 g/ha): 0; Plant response rating, Green foxtail ([7]; Rate 64 g/ha): 100; Plant response rating, Green foxtail ([7]; Rate 125 g/ha): 100; Plant response rating, Green foxtail ([8]; Rate 16 g/ha): 0; Plant response rating, Green foxtail ([8]; Rate 32 g/ha): 20
3 | CC(C)N(C(=O)n1oc(=O)n(C2CCC2)c1=O)c1ccc(Cl)cc1 [Compound 349] | 0 | 0 | 0 | 0 | 0 | 0 | 0 | 0 | 0 | 20 | 0 | 20 | 100 | 100 | 90 | 0 | 0 | 0 | 10 | 40 | Plant response rating, Com. groundsel [5, 12]: 20; Plant response rating, Com. groundsel ([5]; Rate 250 g/ha): 50; Plant response rating, C. purslane [6, 9]: 0; Plant response rating, C. purslane [6, 10]: 0; Plant response rating, C. purslane [6, 11]: 0; Plant response rating, C. purslane [6, 12]: 0; Plant response rating, C. purslane ([6]; Rate 250 g/ha): 0; Plant response rating, Green foxtail ([7]; Rate 64 g/ha): 10; Plant response rating, Green foxtail ([7]; Rate 125 g/ha): 80; Plant response rating, Green foxtail ([8]; Rate 16 g/ha): 0; Plant response rating, Green foxtail ([8]; Rate 32 g/ha): 0
